Blank lines part the entries; values can stand above or below the molecule they belong to.
How the values were obtained:
[1] = in vivo ref 49; cited from earlier work
α-amylase = details: cited from earlier work
α-glucosidase = details: cited from earlier work
[2] = biological target: T1, α-amylase (from the porcine pancreas) (Sus scrofa, UniProt P00690); assay: biochemical; assay type: biochemical; details: for IC50: IC50 α-amylase, mean ± SD (n = 3)
T1 sequence (P00690 16-511): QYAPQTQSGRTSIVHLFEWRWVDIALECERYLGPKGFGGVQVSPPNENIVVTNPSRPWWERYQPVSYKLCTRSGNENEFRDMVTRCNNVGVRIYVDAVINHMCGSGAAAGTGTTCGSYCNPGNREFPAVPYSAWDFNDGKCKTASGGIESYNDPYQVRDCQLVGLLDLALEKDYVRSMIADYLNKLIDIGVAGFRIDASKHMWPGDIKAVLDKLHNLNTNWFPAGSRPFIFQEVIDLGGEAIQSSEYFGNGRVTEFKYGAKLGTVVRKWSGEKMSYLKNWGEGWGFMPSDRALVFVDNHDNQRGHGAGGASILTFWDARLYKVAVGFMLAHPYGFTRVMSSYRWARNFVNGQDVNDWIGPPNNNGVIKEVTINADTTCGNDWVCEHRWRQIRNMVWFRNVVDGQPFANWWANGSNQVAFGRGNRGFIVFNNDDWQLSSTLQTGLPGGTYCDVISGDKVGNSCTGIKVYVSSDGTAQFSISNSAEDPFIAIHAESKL

[3] = tested on: α-Glucosidase (from Saccharomyces cerevisiae); assay: Assay for α-glucosidase inhibitory activity; assay type: biochemical; details: for IC50: read-out: IC50 α-glucosidase, mean ± SD (n = 3); for α-glucosidase inhibitory activity compared to acarbose (in words): Figure 3, 150 μM, p < 0.05; for total activity α-glucosidase: total activity = amount (mg/kg)/IC50 (mg/mL)
glycogen phosphorylase = details: cited from earlier work
[4] = tested on: α-Glucosidase (from Saccharomyces cerevisiae); assay: Inhibitory kinetics analysis against the α-glucosidase enzyme; assay type: biochemical; details: Lineweaver–Burk plot analysis, sucrose substrate
glycogenic enzymes = details: rats ref 47; cited from earlier work
[5] = STZ-induced diabetic rats ref 46; cited from earlier work

SMILES: C[C@H]1[C@H](C)CC[C@]2(C(=O)O)CC[C@]3(C)C(=CC[C@@H]4[C@@]5(C)C[C@@H](O)[C@H](O)C(C)(C)[C@@H]5CC[C@]43C)[C@H]12 [corosoric acid]
post-challenge plasma glucose levels [1]: significant effect on lowering post-challenge plasma glucose levels | α-amylase inhibitory activity in vitro (in words) (α-amylase): strong inhibitory activity | α-glucosidase inhibitory activity in vitro (in words) (α-glucosidase): strong inhibitory activity

IC50 [2]: > 500 µM | inhibition at 500 µM ([2]; read-out: α-amylase inhibitory activity at highest tested concentration): < 10% | α-glucosidase inhibitory activity at highest tested concentration ([3]; 1000 μM): less than 10% | IC50 [3]: > 1000 µM
SMILES: OCCc1ccc(O)c(O)c1 [hydroxytyrosol 7, hydroxytyrosol]

α-amylase inhibitory activity compared to acarbose (in words) [2]: acarbose had higher activity than them | IC50 [2]: 67 ± 5.4 µM | total activity α-amylase ([2]; total activity = amount (mg/kg)/IC50 (mg/mL)): 5678.2 | α-glucosidase inhibitory activity compared to acarbose (in words) [3]: higher than that of acarbose | IC50 [3]: 34.5 ± 1.4 µM | total activity α-glucosidase [3]: 11042.9
SMILES: CC1(C)CC[C@]2(C(=O)O)CC[C@]3(C)C(=CC[C@@H]4[C@@]5(C)C[C@@H](O)[C@H](O)C(C)(C)[C@@H]5CC[C@]43C)[C@@H]2C1 [maslinic acid 2, maslinic acid]
blood glucose levels / glycogen phosphorylase inhibition (glycogen phosphorylase): reduce blood glucose levels by inhibiting glycogen phosphorylase

inhibition type against α-glucosidase [4]: partial mixed inhibitor | inhibition type against α-glucosidase ([4]; listed as 1): mixed-type | α-glucosidase inhibitory activity compared to acarbose (in words) [3]: higher than that of acarbose | total activity α-glucosidase [3]: 5359.5
SMILES: CC1(C)CC[C@]2(C(=O)O)CC[C@]3(C)C(=CC[C@@H]4[C@@]5(C)CC[C@H](O)C(C)(C)[C@@H]5CC[C@]43C)[C@@H]2C1 [oleanolic acid 1, oleanolic acid]
glycogen levels and glycogenic enzymes (glycogenic enzymes): reduced glycogen levels and glycogenic enzymes | blood glucose levels [5]: lower blood glucose levels
